Measured values: publication PMC5218480 (PLoS ONE, 2017)

System: MV-4-11 cells
Experiment: Gene expression microarray analysis (Affymetrix PrimeView) and GSEA
Assay type: cell-based, human
Set-up: RFU PODN (11730768_x_at) / Fold change /veh PODN (11730768_x_at) / RFU LINC00158 (11744669_a_at) / Fold change /veh LINC00158 (11744669_a_at) / RFU DUSP10 (11751237_a_at) / Fold change /veh DUSP10 (11751237_a_at) / RFU ID3 (11757404_x_at) / Fold change /veh ID3 (11757404_x_at) / RFU PLEKHG5 (11737974_s_at) / Fold change /veh PLEKHG5 (11737974_s_at) / RFU LRRC4B (11730491_at) / Fold change /veh LRRC4B (11730491_at) / RFU GIMAP4 (11747438_a_at) / Fold change /veh GIMAP4 (11747438_a_at) / RFU KRT8 (11758183_x_at) / Fold change /veh KRT8 (11758183_x_at) / RFU CNN1 (11734310_a_at) / Fold change /veh CNN1 (11734310_a_at) / RFU VPS37D (11726825_at) / Fold change /veh VPS37D (11726825_at) / RFU C10orf10 (11716522_x_at) / Fold change /veh C10orf10 (11716522_x_at) / RFU KIR2DL2 /// KIR2DL4 /// KIR2DL5A /// KIR2DL5B /// KIR2DS1 /// KIR2DS2 /// KIR2DS3 /// KIR2DS4 /// KIR3DL3 /// KIR3DL3 /// KIR3DS1 (11738374_at) / Fold change /veh KIR2DL2 /// KIR2DL4 /// KIR2DL5A /// KIR2DL5B /// KIR2DS1 /// KIR2DS2 /// KIR2DS3 /// KIR2DS4 /// KIR3DL3 /// KIR3DL3 /// KIR3DS1 (11738374_at) / RFU C1QL1 (11718748_at) / Fold change /veh C1QL1 (11718748_at) / RFU TMPRSS4 (11747572_a_at) / Fold change /veh TMPRSS4 (11747572_a_at) / RFU HAMP (11756126_x_at) / Fold change /veh HAMP (11756126_x_at) / RFU RNFT2 (11725882_a_at) / Fold change /veh RNFT2 (11725882_a_at) / RFU NR4A2 (11747474_a_at) / Fold change /veh NR4A2 (11747474_a_at) / RFU ABCC12 (11746883_a_at) / Fold change /veh ABCC12 (11746883_a_at) / RFU TMEM136 (11760407_x_at) / Fold change /veh TMEM136 (11760407_x_at) / RFU CLDN22 /// WWC2 (11732394_at) / Fold change /veh CLDN22 /// WWC2 (11732394_at) / RFU HLA-DPB1 (11760878_x_at) / Fold change /veh HLA-DPB1 (11760878_x_at) / RFU SPINT1 (11716480_a_at) / Fold change /veh SPINT1 (11716480_a_at) / RFU GAP43 (11754022_s_at) / Fold change /veh GAP43 (11754022_s_at) / RFU A4GNT (11735810_at) / Fold change /veh A4GNT (11735810_at) / RFU PRB3 (11715151_x_at) / Fold change /veh PRB3 (11715151_x_at) / RFU TUBB4B (11761932_at) / Fold change /veh TUBB4B (11761932_at) / RFU CAPN14 (11732068_a_at) / Fold change /veh CAPN14 (11732068_a_at) / RFU TMCC2 (11721928_a_at) / Fold change /veh TMCC2 (11721928_a_at) / RFU IRGQ (11745062_a_at) / Fold change /veh IRGQ (11745062_a_at) / RFU FAM174B (11720279_a_at) / Fold change /veh FAM174B (11720279_a_at) / RFU TMPRSS4 (11748680_a_at) / Fold change /veh TMPRSS4 (11748680_a_at) / RFU FAM212B (11763350_a_at) / Fold change /veh FAM212B (11763350_a_at) / RFU PLEKHG5 (11743358_a_at) / Fold change /veh PLEKHG5 (11743358_a_at) / RFU ZSCAN30 (11745921_a_at) / Fold change /veh ZSCAN30 (11745921_a_at) / RFU CMKLR1 (11741424_a_at) / Fold change /veh CMKLR1 (11741424_a_at) / RFU LOC101060620 /// MAPK8IP1 (11723275_at) / Fold change /veh LOC101060620 /// MAPK8IP1 (11723275_at) / RFU SPTSSB (11747773_x_at) / Fold change /veh SPTSSB (11747773_x_at) / RFU PRSS12 (11739890_at) / Fold change /veh PRSS12 (11739890_at) / RFU BIN1 (11741810_x_at) / Fold change /veh BIN1 (11741810_x_at) / RFU WNT11 (11732464_a_at) / Fold change /veh WNT11 (11732464_a_at) / RFU C10orf10 (11716521_a_at) / Fold change /veh C10orf10 (11716521_a_at) / RFU C5orf56 (11738089_at) / Fold change /veh C5orf56 (11738089_at) / RFU CYB561 (11721691_x_at) / Fold change /veh CYB561 (11721691_x_at) / RFU ANKRD19P (11752326_a_at) / Fold change /veh ANKRD19P (11752326_a_at) / RFU OR2T12 /// OR2T33 /// OR2T8 (11738714_s_at) / Fold change /veh OR2T12 /// OR2T33 /// OR2T8 (11738714_s_at) / RFU VCAN (11748164_a_at) / Fold change /veh VCAN (11748164_a_at) / RFU JSRP1 (11732532_at) / Fold change /veh JSRP1 (11732532_at) / RFU KRTAP10-11 (11738290_x_at) / Fold change /veh KRTAP10-11 (11738290_x_at) / RFU MYO3A (11730013_a_at) / Fold change /veh MYO3A (11730013_a_at) / RFU EBF3 (11725865_a_at) / Fold change /veh EBF3 (11725865_a_at) / RFU CAMK2N1 (11719241_x_at) / Fold change /veh CAMK2N1 (11719241_x_at) / RFU C5orf56 (11738088_a_at) / Fold change /veh C5orf56 (11738088_a_at) / RFU OLFML3 (11715873_a_at) / Fold change /veh OLFML3 (11715873_a_at) / RFU LOC100653217 /// NTM (11731650_a_at) / Fold change /veh LOC100653217 /// NTM (11731650_a_at) / RFU MAPK11 (11762145_a_at) / Fold change /veh MAPK11 (11762145_a_at) / RFU FIZ1 (11724087_x_at) / Fold change /veh FIZ1 (11724087_x_at) / RFU OASL (11726364_x_at) / Fold change /veh OASL (11726364_x_at) / RFU SOX15 (11748057_x_at) / Fold change /veh SOX15 (11748057_x_at) / RFU CD79A (11719716_a_at) / Fold change /veh CD79A (11719716_a_at) / RFU HIST1H1D (11736915_at) / Fold change /veh HIST1H1D (11736915_at) / RFU CASKIN2 (11723855_a_at) / Fold change /veh CASKIN2 (11723855_a_at) / RFU LOC730098 (11760151_x_at) / Fold change /veh LOC730098 (11760151_x_at) / RFU OR4N2 (11742367_at) / Fold change /veh OR4N2 (11742367_at) / RFU PRRT2 (11749266_a_at) / Fold change /veh PRRT2 (11749266_a_at) / RFU SNX32 (11753110_a_at) / Fold change /veh SNX32 (11753110_a_at) / RFU CDHR5 (11726645_a_at) / Fold change /veh CDHR5 (11726645_a_at) / RFU RCAN1 (11760418_a_at) / Fold change /veh RCAN1 (11760418_a_at) / RFU FAM167A (11723789_a_at) / Fold change /veh FAM167A (11723789_a_at) / RFU FAM26E (11764081_at) / Fold change /veh FAM26E (11764081_at) / RFU ISYNA1 (11749810_s_at) / Fold change /veh ISYNA1 (11749810_s_at) / RFU ACY1 (11761880_at) / Fold change /veh ACY1 (11761880_at) / RFU 11764098_at / Fold change /veh 11764098_at / RFU SAMD14 (11745864_x_at) / Fold change /veh SAMD14 (11745864_x_at) / RFU NPB (11741838_a_at) / Fold change /veh NPB (11741838_a_at) / RFU TMPRSS6 (11731388_a_at) / Fold change /veh TMPRSS6 (11731388_a_at) / RFU KRTAP10-2 (11738614_at) / Fold change /veh KRTAP10-2 (11738614_at) / RFU ARHGAP8 /// PRR5-ARHGAP8 (11727945_x_at) / Fold change /veh ARHGAP8 /// PRR5-ARHGAP8 (11727945_x_at) / RFU KRTAP5-7 /// NADSYN1 (11734609_at) / Fold change /veh KRTAP5-7 /// NADSYN1 (11734609_at) / RFU RASL12 (11751679_a_at) / Fold change /veh RASL12 (11751679_a_at) / RFU CDKN2B (11736163_a_at) / Fold change /veh CDKN2B (11736163_a_at) / RFU PRF1 (11729649_at) / Fold change /veh PRF1 (11729649_at) / RFU, ZNF638 /// ZNF638-IT1 / Fold change vs veh, ZNF638 /// ZNF638-IT1 / RFU, PANK3 / Fold change vs veh, PANK3 / RFU, SH3YL1 / Fold change vs veh, SH3YL1 / RFU, ZEB2 / Fold change vs veh, ZEB2 / RFU, NRIP1 / Fold change vs veh, NRIP1 / RFU, PTTG1IP / Fold change vs veh, PTTG1IP / RFU, CAPN2 / Fold change vs veh, CAPN2 / RFU, MED14 / Fold change vs veh, MED14 / RFU, SNORA58 / Fold change vs veh, SNORA58 / RFU, C1orf63 / Fold change vs veh, C1orf63 / RFU, LRRFIP1 / Fold change vs veh, LRRFIP1 / RFU, NDUFAF7 / Fold change vs veh, NDUFAF7 / RFU, SLC12A2 / Fold change vs veh, SLC12A2 / RFU, IBTK / Fold change vs veh, IBTK / RFU, ESF1 / Fold change vs veh, ESF1 / Fold change vs veh, TMEM50B / RFU, TAOK1 / Fold change vs veh, TAOK1 / RFU, ACBD3 / Fold change vs veh, ACBD3 / RFU, TMA16 / Fold change vs veh, TMA16 / RFU, RWDD3 / Fold change vs veh, RWDD3 / RFU, BCAT1 / Fold change vs veh, BCAT1 / RFU, EDEM3 / Fold change vs veh, EDEM3 / RFU, TMEM33 / Fold change vs veh, TMEM33 / RFU, WDR75 / Fold change vs veh, WDR75 / RFU, AHCTF1 / Fold change vs veh, AHCTF1 / RFU, TFRC / Fold change vs veh, TFRC / RFU, ZDHHC17 / Fold change vs veh, ZDHHC17 / RFU, NOM1 / Fold change vs veh, NOM1 / RFU, ARL8B / Fold change vs veh, ARL8B / RFU, ZBTB11 / Fold change vs veh, ZBTB11 / RFU, TAMM41 / Fold change vs veh, TAMM41 / RFU, KIAA1704 /// LOC100996395 / Fold change vs veh, KIAA1704 /// LOC100996395 / RFU, ING1 / Fold change vs veh, ING1 / RFU, TRMT61B / Fold change vs veh, TRMT61B / RFU, FUBP3 / Fold change vs veh, FUBP3 / RFU, TP53 / Fold change vs veh, TP53 / RFU, TNKS2 / Fold change vs veh, TNKS2 / RFU, ZFP14 / Fold change vs veh, ZFP14 / RFU, ACTR2 / Fold change vs veh, ACTR2 / RFU, PPP3R1 / Fold change vs veh, PPP3R1 / RFU, PIK3R1 / Fold change vs veh, PIK3R1 / RFU, HNRNPA1 / Fold change vs veh, HNRNPA1 / RFU, RNF170 / Fold change vs veh, RNF170 / RFU, ZNF28 / Fold change vs veh, ZNF28 / RFU, RNGTT / Fold change vs veh, RNGTT / RFU, OGT / Fold change vs veh, OGT / RFU, BRD1 / Fold change vs veh, BRD1 / RFU, MARS / Fold change vs veh, MARS / RFU, ZNF655 / Fold change vs veh, ZNF655 / RFU, FAHD1 / Fold change vs veh, FAHD1 / RFU, BDP1 / Fold change vs veh, BDP1 / RFU, LRRCC1 / Fold change vs veh, LRRCC1 / RFU, ARID1A / Fold change vs veh, ARID1A / RFU, ZNF146 / Fold change vs veh, ZNF146 / RFU, ZNF330 / Fold change vs veh, ZNF330 / RFU, GPN3 / Fold change vs veh, GPN3 / RFU, C9orf123 / Fold change vs veh, C9orf123 / RFU, N4BP2L2 / Fold change vs veh, N4BP2L2 / RFU, ARFIP1 / Fold change vs veh, ARFIP1 / RFU, FAM179B / Fold change vs veh, FAM179B / RFU, BCL10 / Fold change vs veh, BCL10 / RFU, UHRF1BP1L / Fold change vs veh, UHRF1BP1L / RFU, BET1 / Fold change vs veh, BET1 / RFU, CNOT2 / Fold change vs veh, CNOT2 / RFU, ZNF268 / Fold change vs veh, ZNF268 / Fold change vs veh, ZNF507 / RFU, DGCR2 / Fold change vs veh, DGCR2 / RFU, WDSUB1 / Fold change vs veh, WDSUB1 / Fold change vs veh, HSP90B1 /// MIR3652 / RFU, ADSS / Fold change vs veh, ADSS / RFU, GK / Fold change vs veh, GK / RFU, ZNF148 / Fold change vs veh, ZNF148 / RFU, TAF9 / Fold change vs veh, TAF9 / RFU, SLC1A5 / Fold change vs veh, SLC1A5 / RFU, SLMO2 / Fold change vs veh, SLMO2 / RFU, ABCC4 / Fold change vs veh, ABCC4 / RFU, LOC101060439 /// RAP1B / Fold change vs veh, LOC101060439 /// RAP1B / RFU, RFX7 / Fold change vs veh, RFX7 / RFU, GTPBP10 / Fold change vs veh, GTPBP10 / RFU, CNEP1R1 / Fold change vs veh, CNEP1R1 / RFU, BIVM-ERCC5 /// ERCC5 / Fold change vs veh, BIVM-ERCC5 /// ERCC5 / RFU, ILF3 / Fold change vs veh, ILF3 / RFU 11762660_at / Fold change /veh 11762660_at / RFU VCAN (11757783_s_at) / Fold change /veh VCAN (11757783_s_at) / RFU DDX43 (11728927_at) / Fold change /veh DDX43 (11728927_at) / RFU KRT8 (11758188_x_at) / Fold change /veh KRT8 (11758188_x_at) / RFU NKD1 (11759106_at) / Fold change /veh NKD1 (11759106_at) / RFU SRD5A1 (11742802_a_at) / Fold change /veh SRD5A1 (11742802_a_at) / RFU TPSAB1 /// TPSB2 (11721975_s_at) / Fold change /veh TPSAB1 /// TPSB2 (11721975_s_at) / RFU GSTM3 (11746129_a_at) / Fold change /veh GSTM3 (11746129_a_at) / RFU IL23R (11737362_x_at) / Fold change /veh IL23R (11737362_x_at) / RFU TMEM51 (11727254_a_at) / Fold change /veh TMEM51 (11727254_a_at) / RFU PIWIL2 (11732686_x_at) / Fold change /veh PIWIL2 (11732686_x_at) / RFU ORM1 (11744905_x_at) / Fold change /veh ORM1 (11744905_x_at) / RFU CCDC152 (11743942_at) / Fold change /veh CCDC152 (11743942_at) / RFU ECM1 (11717891_a_at) / Fold change /veh ECM1 (11717891_a_at) / RFU IL23R (11748794_a_at) / Fold change /veh IL23R (11748794_a_at) / RFU TNFAIP8L3 (11732012_x_at) / Fold change /veh TNFAIP8L3 (11732012_x_at) / RFU MBOAT4 (11741988_at) / Fold change /veh MBOAT4 (11741988_at) / RFU 11764193_at / Fold change /veh 11764193_at / RFU TMEM53 (11763286_at) / Fold change /veh TMEM53 (11763286_at) / RFU MAGEB2 (11727129_at) / Fold change /veh MAGEB2 (11727129_at) / RFU TMEM200A (11744735_a_at) / Fold change /veh TMEM200A (11744735_a_at) / RFU CCDC152 (11751479_a_at) / Fold change /veh CCDC152 (11751479_a_at) / RFU FAM211A (11726209_a_at) / Fold change /veh FAM211A (11726209_a_at) / RFU RGS16 (11746705_a_at) / Fold change /veh RGS16 (11746705_a_at) / RFU VCAN (11755009_s_at) / Fold change /veh VCAN (11755009_s_at) / RFU RHOB (11743442_s_at) / Fold change /veh RHOB (11743442_s_at) / RFU RGS16 (11720943_a_at) / Fold change /veh RGS16 (11720943_a_at) / RFU RGS16 (11720944_at) / Fold change /veh RGS16 (11720944_at) / RFU, VPS4B / Fold change vs veh, VPS4B / RFU, CREB1 / Fold change vs veh, CREB1 / RFU, DNAJC13 / Fold change vs veh, DNAJC13 / RFU, GNAQ / Fold change vs veh, GNAQ / RFU, CDK5R1 / Fold change vs veh, CDK5R1 / RFU, ZRANB3 / Fold change vs veh, ZRANB3 / RFU, CUL4A / Fold change vs veh, CUL4A / RFU, CCNY / Fold change vs veh, CCNY / RFU, UFL1 / Fold change vs veh, UFL1 / RFU, COG3 / Fold change vs veh, COG3 / RFU, DIAPH2 / Fold change vs veh, DIAPH2 / RFU, SKA2 / Fold change vs veh, SKA2 / RFU, AFF3 / Fold change vs veh, AFF3 / RFU, LMF1 / Fold change vs veh, LMF1 / RFU, IPO11 / Fold change vs veh, IPO11 / RFU, DFFB / Fold change vs veh, DFFB / RFU, FOXP1 / Fold change vs veh, FOXP1 / RFU, CARD8 / Fold change vs veh, CARD8 / RFU, STRN3 / Fold change vs veh, STRN3 / RFU, ADK / Fold change vs veh, ADK / RFU, RASSF2 / Fold change vs veh, RASSF2 / RFU, WIPF1 / Fold change vs veh, WIPF1 / RFU, LARP1B / Fold change vs veh, LARP1B / RFU, RASA1 / Fold change vs veh, RASA1 / RFU, RB1 / Fold change vs veh, RB1 / RFU, PPFIA1 / Fold change vs veh, PPFIA1 / RFU, MAT2A / Fold change vs veh, MAT2A / RFU, CCT5 / Fold change vs veh, CCT5 / RFU, WDR92 / Fold change vs veh, WDR92 / RFU, CUX1 / Fold change vs veh, CUX1 / RFU, TTC7A / Fold change vs veh, TTC7A / RFU, TMEM135 / Fold change vs veh, TMEM135 / RFU, DEPTOR / Fold change vs veh, DEPTOR / RFU, CPM / Fold change vs veh, CPM / RFU, DNAJB6 / Fold change vs veh, DNAJB6 / RFU, CACNA2D3 / Fold change vs veh, CACNA2D3 / RFU, DTX4 / Fold change vs veh, DTX4 / RFU, TFCP2 / Fold change vs veh, TFCP2 / RFU, GMCL1 /// GMCL1P1 / Fold change vs veh, GMCL1 /// GMCL1P1 / RFU, AEBP2 / Fold change vs veh, AEBP2 / RFU, SNHG1 /// SNORD22 /// SNORD25 /// SNORD26 /// SNORD27 /// SNORD28 /// SNORD29 /// SNORD31 / Fold change vs veh, SNHG1 /// SNORD22 /// SNORD25 /// SNORD26 /// SNORD27 /// SNORD28 /// SNORD29 /// SNORD31 / Fold change (Aza/veh), C12orf56 (ProbeSet 11735607_a_at) / Fold change (ACY-1035/veh), C12orf56 (ProbeSet 11735607_a_at) / Fold change (Aza/veh), FGFR1OP (ProbeSet 11751329_s_at) / Fold change (ACY-1035/veh), FGFR1OP (ProbeSet 11751329_s_at) / Fold change (Aza/veh), VPS36 (ProbeSet 11739960_a_at) / Fold change (ACY-1035/veh), VPS36 (ProbeSet 11739960_a_at) / RFU SYPL1 (11715823_x_at) / Fold change /veh SYPL1 (11715823_x_at) / RFU IGFBP7 (11715501_s_at) / Fold change /veh IGFBP7 (11715501_s_at) / RFU REEP3 (11722064_at) / Fold change /veh REEP3 (11722064_at) / RFU IGLL1 (11728026_x_at) / Fold change /veh IGLL1 (11728026_x_at): dose or concentration left out as unconfirmed
Conditions: MV-4-11 cells, 48 hours

**Q.** For `Nc1ccc(-c2cccs2)cc1NC(=O)c1ccc2c(c1)cc(C1CC1)n2CCN1CCOCC1` [ACY-1035], which “Fold change /veh CD79A (11719716_a_at)” value is on record?
**A.** 1.12
